Assay results taken from publication PMC3984012 (Journal of Acquired Immune Deficiency Syndromes (1999), 2014).

How the values were obtained:
[1] = Plasma BOC and TVR pharmacokinetics when coadministered with MVC; format: in vivo, human; details: coadministered with MVC 150 mg BID
[2] = cited from earlier work; for AUC8 previously reported / C8 previously reported: dosed alone, range; for Mean historical minimum plasma concentration (Cmin): historical data
OATP1B1 = details: read-out: OATP1B1 IC50; in vitro data; cited from earlier work
CYP3A = details: oral coadministration of midazolam; cited from earlier work
P-gp = details: cited from earlier work
CYP3A and OATP1B1 = details: coadministered with atorvastatin; cited from earlier work
HIV-1 = details: cited from earlier work

Compound	Exposures when coadministered with MVC compared with historical data [1]	AUC8 previously reported [2]	C8 previously reported [2]	Mean historical minimum plasma concentration (Cmin) [2]	IC50 (OATP1B1)	Increase in AUC of midazolam (CYP3A)	Increase in AUC of digoxin (P-gp)	Increase in AUC (exposure) of atorvastatin (CYP3A and OATP1B1)	Cavg exposure at which near maximal virologic efficacy is achieved (HIV-1)
CC(C)(C)NC(=O)N[C@H](C(=O)N1C[C@H]2[C@@H]([C@H]1C(=O)NC(CC1CCC1)C(=O)C(N)=O)C2(C)C)C(C)(C)C (some centres unmarked) [BOC, Boceprevir]	consistent with historical data	4601 to 7070 ng·h/mL	88.5 to 111 ng/mL	102 ng/mL	18 µM	430%	19%	2.30 fold	–
CCC[C@H](NC(=O)[C@@H]1[C@H]2CCC[C@H]2CN1C(=O)[C@@H](NC(=O)[C@@H](NC(=O)c1cnccn1)C1CCCCC1)C(C)(C)C)C(=O)C(=O)NC1CC1 [TVR, Telaprevir]	consistent with historical data	18157 to 22300 ng·h/mL	1505 to 2030 ng/mL	1802 ng/mL	2.2 µM	796%	85%	7.88 fold	–
Maraviroc [MVC]	–	–	–	–	–	–	–	–	75–100 ng/mL
